Consider three molecules from patent publication US20020006420A1, “USE OF A 2-AMINO-ALKANE POLYOL AS AGENT FOR TREATING SKIN AGEING SIGNS” (priority 1997, published 2002).

Common to all, as to type: cell-based
Assay [1] deals with HaCat cells. Put plainly: Effect on cell viability (mitochondrial respiration, XTT kit). As to conditions: 50 nM. As for the experimental part:
(§1) HaCat cells are cultured as above.
(§2) They are then inoculated at the density of 20,000 cells per well into the 24 wells of multiwell-type plates (Costar, France).
(§3) 24 hours after inoculation, the cells are brought into contact with various compounds tested in a KBM medium (company Clonetics) containing insulin at 5 μg/ml and hydrocortisone at 0.5 μg/ml.
(§4) The cell viability is evaluated 48 hours later by the measurement of mitochondrial respiration. This is carried out with the aid of an XTT kit sold by the company Boehringer and according to the supplier's instructions.
Compounds A and B of the preceding example were tested at the concentration of 50 nM, as well as a derivative based on sphingenine: N-palmitoylsphingenine from Sigma (C16H).
The results, expressed as a percentage, represent the increase in the number of cells relative to the control, that is to say relative to a culture carried out under the same conditions in the absence of alkanediol compounds.

Assay [2] concerns HaCat cells. Put plainly: Proliferative effect on keratinocytes in culture (cell counting, Coulter Counter). As to conditions: for increase in the number of cells relative to the control: counting 5 days after addition. As for the experimental part:
HaCat cells (Boukamp et al., J. Cell Biol. Vol. 106, March 1988, 761-771) are cultured in DMEM medium (company Gibco) containing amino acids (mixture of nonessential amino acids) at the concentration of 0.1 mM, penicillin and streptomycin at the respective concentrations of 50 International Units per milliliter and 50 μg/ml, glutamine at the concentration of 2 mM, sodium pyruvate at the concentration of 1 mM and foetal calf serum at 10%. These cells were inoculated at the density of 10,000 cells per well into the 24 wells of multiwell-type plates (Costar, France).
24 hours after inoculation, the cells are brought into contact with various compounds tested in a KBM medium (company Clonetics) containing 0.15 mM of calcium ion, insulin at 5 μg/ml, hydrocortisone at 0.5 μg/ml and lipid-free bovine serum albumin at 1 μg/ml.
Cell counting is carried out 5 days after the addition of the various ceramides using a cell counter of the Coulter Counter type.
The various compounds are tested at 0.5 nM, 5 nM, 50 nM and 500 nM.
The results, expressed as a percentage, represent the increase in the number of cells relative to the control, that is to say relative to a culture carried out under the same conditions in the absence of sphinganine.

Assay [3] deals with HaCat cells. Put plainly: Effect on the cell cycle (BrdU incorporation, S phase). The conditions noted are these: 50 nM. As for the experimental part:
as §1, §2
24 hours after inoculation, the cells are brought into contact with various compounds tested in a KBM medium (company Clonetics) containing insulin at 5 μg/ml and hydrocortisone at 0.5 μg/ml, and 5-bromo-2′-deoxyuridine (BrdU) at 1 μM.
[…] This is carried out with the aid of a “BrdU fast” kit sold by the company Boehringer and according to the supplier's instructions.
Compounds A and B of the preceding example were tested at the concentration of 50 nM.
The results, expressed as a percentage, represent the increase in the number of cells which entered the S phase relative to the control, that is to say relative to a culture carried out under the same conditions in the absence of alkanediol compounds.

The test system of assay [4] is HaCat cells. Description: Cell viability in the presence of N-acetylsphingenine (XTT kit). As to conditions: 10 μM. Here is the method:
HaCat cells are cultured as in Example 2.
as §3
The cells are cultured in the presence of the 2-amino-1,3-octadecanediol to be tested until the cell viability is evaluated.
The N-acteylsphingenine at the concentration of 10 μM is added to the culture medium over 2 hours at the beginning of the experiment.
as §4
The experiment was carried out with the following compounds at the concentration of 50 nM:
in comparison with the culture medium without alkanediol and without N-acetylsphingenine (A), and with a medium containing only N-acetylsphingenine (B).
The results, expressed as a percentage, represent the number of cells relative to the control (A), that is to say relative to a culture carried out under the same conditions in the absence of alkanediol compounds and of N-acetysphingenine.

For the molecule `CCCCCCCCCCCCCCCC(O)C(N)CO` (single isomer, unassigned) [A, 2-amino-1,3-octadecanediol], in the assay on HaCat cells [1], the “effect on viability of keratinocytes in culture (in words)” value is “increase the viability”. Also, the “cell viability: increase in the number of cells relative to the control” value with HaCat cells [1] (XTT 48 hours later) was “+17%”. The “proliferative activity on keratinocytes in culture (in words)” value in the assay on HaCat cells [2] is on record as “proliferative activity”. In addition, the “increase in the number of cells relative to the control” value worked out at 7% in the assay on HaCat cells [2] (0.5 nM), 15% in the assay on HaCat cells [2] (5 nM), 17% with HaCat cells [2] (50 nM) and 30% with HaCat cells [2] (500 nM). In addition, the “effect on number of keratinocytes which entered the S phase (in words)” value with HaCat cells [3] is listed as “increase the number of keratinocytes which entered the S phase”. In addition, the figures for the “increase in the number of cells which entered the S phase relative to the control” value in the assay on HaCat cells [3] (72 hours) and in the assay with HaCat cells [3] (96 hours) were 36% and 41%, respectively.
For `CCCCCCCCCCCCC/C=C/[C@@H](O)[C@H](CO)NC(=O)CCCCCCCCCCCCCCC` [Compound C16H, N-palmitoylsphingenine, reference compound], the “effect on viability of keratinocytes in culture (in words)” value in the assay with HaCat cells [1] is “cytotoxic effect”.
As for N-acetylsphingenine [B], the “effect of N-acetylsphingenine on cell viability (in words)” value in the assay with HaCat cells [4] is listed as “decrease in cell viability”.
